From patent publication US12617779B2, “Self degradation-type CDK9 inhibitor prodrug and liposome encapsulating same” (Sumitomo Pharma Co., Ltd., priority 2021, dated 2026)

Experiment: Evaluation of conversion rate to active form in buffer solution (Experimental Example 1)
Format: physicochemical
Settings: for Production rate of Alvocidib / Residual rate: 25 umol/L in buffer solution; for Stability in buffer solution at pH 5: pH 5, 37° C., up to 2 or 3 hours; for Conversion to Alvocidib at pH 7.4: pH 7.4, 37° C., up to 3 hours
Outline: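 Compounds at 25 umol/L were held at 37 °C in 50 mM citrate (pH 5.0, 5.5) or phosphate (pH 6.0–7.4) buffers. Remaining compound and Alvocidib formed were quantified by HPLC at 0, 0.5, 1, 2 and 3 h.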

CCN(C[C@@H]1CCCCN1)C(=O)Oc1cc(O)c2c(=O)cc(-c3ccccc3Cl)oc2c1[C@H]1CCN(C)C[C@H]1O [Example 1, 2-(2-chlorophenyl)-5-hydroxy-8-[(3S,4R)-3-hydroxy-1-methylpiperidin-4-yl]-4-oxo-4H-1-benzopyran-7-yl ethyl{[(2S)-piperidin-2-yl]methyl}carbamate ditrifluoroacetate]
Efficiency of conversion to Alvocidib (buffer solution, 37° C.): higher efficiency | Production rate of Alvocidib (pH5.0, 0 hr, 37° C.): 0.0% | Residual rate (pH5.0, 0 hr, 37° C.): 98.7% | Stability in buffer solution at pH 5: stable | Production rate of Alvocidib (pH5.0, 0.5 hr, 37° C.): 0.4% | Residual rate (pH5.0, 0.5 hr, 37° C.): 98.4% | Production rate of Alvocidib (pH5.0, 1 hr, 37° C.): 0.7% | Residual rate (pH5.0, 1 hr, 37° C.): 98.1% | Production rate of Alvocidib (pH5.0, 2 hr, 37° C.): 1.3% | Residual rate (pH5.0, 2 hr, 37° C.): 97.4% | Production rate of Alvocidib (pH5.0, 3 hr, 37° C.): 1.8% | Residual rate (pH5.0, 3 hr, 37° C.): 96.9% | Production rate of Alvocidib (pH5.5, 0 hr, 37° C.): 0.0% | Residual rate (pH5.5, 0 hr, 37° C.): 98.8% | Production rate of Alvocidib (pH5.5, 0.5 hr, 37° C.): 1.0% | Residual rate (pH5.5, 0.5 hr, 37° C.): 97.3% | Production rate of Alvocidib (pH5.5, 1 hr, 37° C.): 1.8% | Residual rate (pH5.5, 1 hr, 37° C.): 97.1% | Production rate of Alvocidib (pH5.5, 2 hr, 37° C.): 3.5% | Residual rate (pH5.5, 2 hr, 37° C.): 95.3% | Production rate of Alvocidib (pH5.5, 3 hr, 37° C.): 5.1% | Residual rate (pH5.5, 3 hr, 37° C.): 93.8% | Production rate of Alvocidib (pH6.0, 0 hr, 37° C.): 0.0% | Residual rate (pH6.0, 0 hr, 37° C.): 99.2% | Production rate of Alvocidib (pH6.0, 0.5 hr, 37° C.): 3.3% | Residual rate (pH6.0, 0.5 hr, 37° C.): 95.5% | Production rate of Alvocidib (pH6.0, 1 hr, 37° C.): 6.3% | Residual rate (pH6.0, 1 hr, 37° C.): 92.5% | Production rate of Alvocidib (pH6.0, 2 hr, 37° C.): 12.0% | Residual rate (pH6.0, 2 hr, 37° C.): 86.8% | Production rate of Alvocidib (pH6.0, 3 hr, 37° C.): 17.0% | Residual rate (pH6.0, 3 hr, 37° C.): 81.8% | Production rate of Alvocidib (pH6.5, 0 hr, 37° C.): 0.0% | Residual rate (pH6.5, 0 hr, 37° C.): 98.4% | Production rate of Alvocidib (pH6.5, 0.5 hr, 37° C.): 8.7% | Residual rate (pH6.5, 0.5 hr, 37° C.): 90.2% | Production rate of Alvocidib (pH6.5, 1 hr, 37° C.): 16.4% | Residual rate (pH6.5, 1 hr, 37° C.): 82.0% | Production rate of Alvocidib (pH6.5, 2 hr, 37° C.): 30.1% | Residual rate (pH6.5, 2 hr, 37° C.): 68.4% | Production rate of Alvocidib (pH6.5, 3 hr, 37° C.): 40.7% | Residual rate (pH6.5, 3 hr, 37° C.): 57.7% | Production rate of Alvocidib (pH7.0, 0 hr, 37° C.): 0.0% | Residual rate (pH7.0, 0 hr, 37° C.): 98.9% | Production rate of Alvocidib (pH7.0, 0.5 hr, 37° C.): 23.2% | Residual rate (pH7.0, 0.5 hr, 37° C.): 75.0% | Production rate of Alvocidib (pH7.0, 1 hr, 37° C.): 41.1% | Residual rate (pH7.0, 1 hr, 37° C.): 57.8% | Production rate of Alvocidib (pH7.0, 2 hr, 37° C.): 65.3% | Residual rate (pH7.0, 2 hr, 37° C.): 33.5% | Production rate of Alvocidib (pH7.0, 3 hr, 37° C.): 77.1% | Residual rate (pH7.0, 3 hr, 37° C.): 21.0% | Production rate of Alvocidib (pH7.4, 0 hr, 37° C.): 0.4% | Residual rate (pH7.4, 0 hr, 37° C.): 98.5% | Conversion to Alvocidib at pH 7.4: rapidly converted to Alvocidib | Production rate of Alvocidib (pH7.4, 0.5 hr, 37° C.): 44.9% | Residual rate (pH7.4, 0.5 hr, 37° C.): 53.8% | Production rate of Alvocidib (pH7.4, 1 hr, 37° C.): 69.3% | Residual rate (pH7.4, 1 hr, 37° C.): 29.3% | Production rate of Alvocidib (pH7.4, 2 hr, 37° C.): 87.6% | Residual rate (pH7.4, 2 hr, 37° C.): 11.3% | Production rate of Alvocidib (pH7.4, 3 hr, 37° C.): 91.4% | Residual rate (pH7.4, 3 hr, 37° C.): 6.9%

CCN(C[C@H]1CCCCN1)C(=O)Oc1cc(O)c2c(=O)cc(-c3ccccc3Cl)oc2c1[C@H]1CCN(C)C[C@H]1O [Example 2, 2-(2-chlorophenyl)-5-hydroxy-8-[(3S,4R)-3-hydroxy-1-methylpiperidin-4-yl]-4-oxo-4H-1-benzopyran-7-yl ethyl{[(2R)-piperidin-2-yl]methyl}carbamate]
Production rate of Alvocidib (pH5.0, 0 hr, 37° C.): 0.0% | Residual rate (pH5.0, 0 hr, 37° C.): 95.5% | Stability in buffer solution at pH 5: stable | Production rate of Alvocidib (pH5.0, 0.5 hr, 37° C.): 0.3% | Residual rate (pH5.0, 0.5 hr, 37° C.): 95.4% | Production rate of Alvocidib (pH5.0, 1 hr, 37° C.): 0.5% | Residual rate (pH5.0, 1 hr, 37° C.): 95.1% | Production rate of Alvocidib (pH5.0, 2 hr, 37° C.): 1.1% | Residual rate (pH5.0, 2 hr, 37° C.): 94.7% | Production rate of Alvocidib (pH5.0, 3 hr, 37° C.): 1.6% | Residual rate (pH5.0, 3 hr, 37° C.): 94.1% | Production rate of Alvocidib (pH5.5, 0 hr, 37° C.): 0.0% | Residual rate (pH5.5, 0 hr, 37° C.): 95.8% | Production rate of Alvocidib (pH5.5, 0.5 hr, 37° C.): 0.8% | Residual rate (pH5.5, 0.5 hr, 37° C.): 95.1% | Production rate of Alvocidib (pH5.5, 1 hr, 37° C.): 1.7% | Residual rate (pH5.5, 1 hr, 37° C.): 94.3% | Production rate of Alvocidib (pH5.5, 2 hr, 37° C.): 3.2% | Residual rate (pH5.5, 2 hr, 37° C.): 92.5% | Production rate of Alvocidib (pH5.5, 3 hr, 37° C.): 5.3% | Residual rate (pH5.5, 3 hr, 37° C.): 90.4% | Production rate of Alvocidib (pH6.0, 0 hr, 37° C.): 0.0% | Residual rate (pH6.0, 0 hr, 37° C.): 95.5% | Production rate of Alvocidib (pH6.0, 0.5 hr, 37° C.): 2.9% | Residual rate (pH6.0, 0.5 hr, 37° C.): 93.0% | Production rate of Alvocidib (pH6.0, 1 hr, 37° C.): 5.7% | Residual rate (pH6.0, 1 hr, 37° C.): 89.6% | Production rate of Alvocidib (pH6.0, 2 hr, 37° C.): 11.1% | Residual rate (pH6.0, 2 hr, 37° C.): 81.0% | Production rate of Alvocidib (pH6.0, 3 hr, 37° C.): 15.7% | Residual rate (pH6.0, 3 hr, 37° C.): 74.5% | Production rate of Alvocidib (pH6.5, 0 hr, 37° C.): 0.0% | Residual rate (pH6.5, 0 hr, 37° C.): 95.9% | Production rate of Alvocidib (pH6.5, 0.5 hr, 37° C.): 7.9% | Residual rate (pH6.5, 0.5 hr, 37° C.): 87.4% | Production rate of Alvocidib (pH6.5, 1 hr, 37° C.): 15.1% | Residual rate (pH6.5, 1 hr, 37° C.): 75.4% | Production rate of Alvocidib (pH6.5, 2 hr, 37° C.): 27.2% | Residual rate (pH6.5, 2 hr, 37° C.): 57.4% | Production rate of Alvocidib (pH6.5, 3 hr, 37° C.): 36.1% | Residual rate (pH6.5, 3 hr, 37° C.): 45.1% | Production rate of Alvocidib (pH7.0, 0 hr, 37° C.): 0.0% | Residual rate (pH7.0, 0 hr, 37° C.): 95.4% | Production rate of Alvocidib (pH7.0, 0.5 hr, 37° C.): 21.0% | Residual rate (pH7.0, 0.5 hr, 37° C.): 66.7% | Production rate of Alvocidib (pH7.0, 1 hr, 37° C.): 38.0% | Residual rate (pH7.0, 1 hr, 37° C.): 44.8% | Production rate of Alvocidib (pH7.0, 2 hr, 37° C.): 53.4% | Residual rate (pH7.0, 2 hr, 37° C.): 19.9% | Production rate of Alvocidib (pH7.0, 3 hr, 37° C.): 60.8% | Residual rate (pH7.0, 3 hr, 37° C.): 9.8% | Production rate of Alvocidib (pH7.4, 0 hr, 37° C.): 0.2% | Residual rate (pH7.4, 0 hr, 37° C.): 95.4% | Conversion to Alvocidib at pH 7.4: rapidly converted to Alvocidib | Production rate of Alvocidib (pH7.4, 0.5 hr, 37° C.): 38.7% | Residual rate (pH7.4, 0.5 hr, 37° C.): 41.7% | Production rate of Alvocidib (pH7.4, 1 hr, 37° C.): 56.4% | Residual rate (pH7.4, 1 hr, 37° C.): 17.1% | Production rate of Alvocidib (pH7.4, 2 hr, 37° C.): 66.0% | Residual rate (pH7.4, 2 hr, 37° C.): 3.5% | Production rate of Alvocidib (pH7.4, 3 hr, 37° C.): 67.6% | Residual rate (pH7.4, 3 hr, 37° C.): 1.5%
